Experimental findings from patent US9801383B2, “Synergistic pesticidal compositions and related methods” (priority 2013, dated 2017) are described below.

Structures are written as SMILES.

Common to all, as to assay type: in vivo
The subject of test [1] is brown stink bug, Euschistus heros. As to the kind of experiment: Bean piece dip bioassay against brown stink bug. As to conditions: single active. On the procedure: The active compositions were formulated in a 10% acetone solution with 0.025% non-ionic surfactant, TWEEN® 20. Bean pieces (about one inch-long) were used for the tests. Four bean pieces were placed in each tested active solution and left there for 10 minutes. Bean pieces were taken out of the active solution, and each piece was placed in a well in a 32-well tray and allowed to air dry. Three third-instar nymphs of brown stink bug, Euschistus heros, were infested into each well.
A pesticidal composition formulated in a 10% acetone solution with 0.025% non-ionic surfactant, TWEEN® 20 were tested against brown stink bugs, Euschistus heros, according to the procedure described in example 8A.

Test [2] deals with Western flower thrips, Frankliniella occidentalis. As to the kind of experiment: Cotton leaf punch dip bioassay against Western flower thrips. As to conditions: single active. As to the method: The active compositions were formulated in a 10% acetone solution with 0.025% non-ionic surfactant, TWEEN® 20. Cotton leaf punches were used for bioassays. Two cotton leaf punches were placed in each solution and left there for 10 minutes. Leaves were taken out of the solution, placed on a piece of filter paper in separated Petri dishes, and air dried. Each leaf disc was considered a repetition. Five nymphs of Western flower thrips, Frankliniella occidentalis, were infested per repetition.
The active compounds were formulated in a 10% acetone solution with 0.025% non-ionic surfactant, TWEEN® 20. Cotton leaf punches were used for bioassays. Two cotton leaf punches were placed in each solution and left there for 10 minutes. Leaves were taken out of the solution, placed on a piece of filter paper in separated Petri dishes, and air dried. Each leaf disc was considered a repetition. Five nymphs of Western flower thrips, Frankliniella occidentalis, were infested per repetition.

In test [3] the test system is plant bugs, Lygus hesperus. As to the kind of experiment: Bean piece dip bioassay against Western plant bugs. As to conditions: single active. On the procedure:
The active compositions were formulated in a 10% acetone solution with 0.025% non-ionic surfactant, TWEEN® 20. Bean pieces (about one inch-long) were used for the tests. Four bean pieces were placed in each tested active solution and left there for 10 minutes. Bean pieces were taken out of the active solution, and each piece was placed in a well in a 32-well tray and allowed to air dry. Three third-instar nymphs of Western plant bugs, Lygus hesperus, were infested into each well.

Test [4] has as its system diamondback moth, Plutella xylostella. Kind of test: Cabbage plant track-sprayer bioassay against diamondback moth. As to conditions: single active, 0.0025 weight %, second instar. As to the method:
A pesticidal composition was prepared by thoroughly mixing about 0.04 weight % of N-(3-chloro-1-(pyridin-3-yl)-1H-pyrazol-4-yl)-N-ethyl-3-((3,3,3-trifluoropropyl)sulfinyl) propanamide (hereinafter “compound II”) with about 0.000156 weight % of chlorpyrifos.
The bioassays were performed for different active compounds. Cabbage plants with about two to three new-growth-true leaf stage were treated with different active compounds using a track sprayer application at 400 L/Ha spray volume. Three second instar diamondback moth, Plutella xylostella, were infested onto each leaf disc. The percent control of the pesticidal composition against diamondback moth, Plutella xylostella, was determined as the “Observed” action, and compared to those obtained by using about 0.0025 weight % of compound II, and using about 0.0025 weight % of chlorpyrifos alone. The “Colby's Expected Action” was calculated using Colby's equation as discussed previously.

The mark [5] stands for this setting: 0.04 weight %, third-instar nymphs.

With `CCN(C(=O)CCSCCC(F)(F)F)c1cn(-c2cccnc2)nc1Cl` [Compound I, N-(3-chloro-1-(pyridin-3-yl)-1H-pyrazol-4-yl)-N-ethyl-3-((3,3,3-trifluoropropyl)thio)propanamide], the “% Control Four Days After Treatment” value in test [1] (setting [5]) was “no activity”. The “% Control Three Days After Treatment” value in test [2] (0.04 weight %, nymphs) was 20%.
Take `CCN(C(=O)CC[S+]([O-])CCC(F)(F)F)c1cn(-c2cccnc2)nc1Cl` (centres unmarked) [Compound II, N-(3-chloro-1-(pyridin-3-yl)-1H-pyrazol-4-yl)-N-ethyl-3-((3,3,3-trifluoropropyl)sulfinyl)propanamide]: the “% Control Three Days After Treatment” value in test [3] (setting [5]) is reported as 0%; in test [2] (0.04 weight %, nymphs), 0%; in test [2] (0.04 weight %, nymphs, listed as compound II), “no activity”; in test [4] it was “substantially no pesticidal activity”.
For `CCOP(=S)(OCC)Oc1nc(Cl)c(Cl)cc1Cl` [Chlorpyrifos, O,O-diethyl O-3,5,6-trichloropyridin-2-yl phosphorothioate], the “% Control Four Days After Treatment” value is 0% in test [1] (0.000156 weight %); “no activity” in test [1] (0.000156 weight %, listed as chlorpyrifos); 92% in test [1] (0.000625 weight %). Moreover, the “% Control Three Days After Treatment” value in test [3] (0.0003125 weight %) is listed as 50%; in test [2] (0.0000049 weight %) it was 0%; in test [2] (0.0000049 weight %, listed as chlorpyrifos), “no activity”; in test [2] (0.0000195 weight %) it was 20%; in test [2] (0.0003125 weight %) it was 70%; in test [2] (0.00125 weight %) it was 80%. Besides, the entries for the “% Control Three Days After Treatment” value in test [4] and in test [4] (listed as chlorpyrifos) were 0% and “substantially no pesticidal activity”, respectively.
